From patent publication US10736908B2, “Antiviral aryl-amide phosphodiamide compounds” (Merck Sharp & Dohme Corp., priority 2016, dated 2020) come the findings set out here.

Each structure is given as a SMILES string. Where two headings read alike, the source gives them in different places.

For series [1], the system named is HIV-1 (H9/IIIB strain). Nature of the series: Multiple round HIV-1 infection assay (Viking assay) in MT4-GFP cells. Format: cell-based. The settings on record: HIV-1 replication in MT4-GFP cells. On the procedure: Assessing Antiviral Potency in a Multiple Round HIV-1 Infection Assay (Viking Assay)
The antiviral activity of the tenofovir prodrugs of the Examples herein was assessed in an assay that measures the rate of replication of HIV in cell culture, termed the Viking assay (VIral KINetics in Green cells) and performed as follows. HIV-1 replication was monitored using MT4-gag-GFP clone D3 (hereafter designated MT4-GFP), which are MT-4 cells modified to harbor a GFP reporter gene, the expression of which is dependent on the HIV-1 expressed proteins tat and rev. Productive infection of an MT4-GFP cell with HIV-1 results in GFP expression approximately 24 h post-infection. MT4-GFP cells were maintained at 37° C./5% CO2/90% relative humidity in RPMI 1640 supplemented with 10% fetal bovine serum, 100 U/ml penicillin/streptomycin, and 400 μg/ml G418 to maintain the reporter gene. For infections, MT4-GFP cells were placed in the same medium lacking G418 and infected overnight with HIV-1 (H9/IIIB strain) virus at an approximate multiplicity of infection of 0.01 in the same incubation conditions. […] Compound plates were prepared by dispensing compounds dissolved in DMSO into wells of 384 well poly-D-lysine-coated plates (0.2 μl/well) using an ECHO acoustic dispenser. Each compound was tested in a 10-point serial 3-fold dilution (typical final concentrations: 8.4 μM-0.42 nM). Controls included no inhibitor (DMSO only) and a combination of three antiviral agents (efavirenz, indinavir, an in-house integrase strand transfer inhibitor at final concentrations of 4 μM each). Cells were added (50 μL/well) to compound plates and the infected cells were maintained at 37° C./5% CO2/90% relative humidity.
Infected cells were quantified at two time points, ˜48 h and ˜72 h post-infection, by counting the number of green cells in each well using an Acumen eX3 scanner. The increase in the number of green cells over ˜24 h period gives the reproductive ratio, R0, which is typically 5-15 and has been shown experimentally to be in logarithmic phase (data not shown). Inhibition of R0 is calculated for each well, and IC50s determined by non-linear 4-parameter curve fitting.

Series [2] can be described thus: Prodrug stability assay in bio-relevant media (FaSSIF with Pancreatin). As to conditions: HPLC peak area of prodrug at 5 h divided by that at 0 h; 0.5 mg/mL Pancreatin in FaSSIF, 37° C. Format: in vitro ADME. On the procedure: Prodrug Stability Assay in Bio-Relevant Media
The following assay was employed to evaluate the stability of the prodrugs in simulated gastrointestinal tract conditions. Preparation of fasted state simulated intestinal fluid (FaSSIF) using Phares SIF Powder was carried out according to protocols from Phare Drug Delivery AG (Baselland, Switzerland). For sample preparation, 10 μL stock solutions (10 mM) of prodrug substance in DMSO was added to 990 μL of 0.5 mg/mL Pancreatin solution (Fisher CAS #8049-47˜6) in FaSSIF. Two samples were prepared for each compound. If the sample was a clear solution, it was directly analyzed by HPLC. If the sample was not clear, the sample was diluted with 100% MeCN, maintained at 37° C. and observed 5 h later. If the sample was clear, HPLC analysis was directly performed. If the sample was still not clear, the sample was diluted with 100% ACN and assayed by HPLC. All the samples were vortexed for 3 min and observed before injection. For the diluted samples, the area is multiplied by a dilution factor when the data is analyzed. The analysis was carried out with an Agilent 1100 series HPLC with autosampler. The column was a Poroshell 120 EC-C18, 4.6×50 mm, 2.7 μm. The flow rate was 1.8 mL/min, and the injection volume was 5 or 10 μL. UV detection was in the range 210-400 nm. The mobile phase consisted of solvent A (water plus 10 mM tetrabutylammonium bromide) and solvent B (acetonitrile) with a gradient of: 90% solvent A at 0 min, changing to 95% solvent B over 6 min, maintaining for 1.5 min, then reverting to 90% solvent A over 1.6 min. The HPLC peak area of the prodrug at 5 h was divided by the HPLC peak area of the prodrug at 0 h, to generate the % claimed parent ratio, which is summarized in Table 2 for gastrointestinal (GI) Tract stability.

Setting [3] is: Human immunodeficiency virus 1, IIIB, 50% NHS (normal human serum), read-out: Viking, IC50 (50% NHS).
Where [4] appears, read: Human immunodeficiency virus 1, IIIB, head prints 100% NHS (normal human serum), read-out: Viking, IC50 (100% NHS).
[5] abbreviates: 50% NHS (normal human serum), read-out: Viking, IC50 (50% NHS).
[6] abbreviates: head prints 100% NHS (normal human serum), read-out: Viking, IC50 (100% NHS).

A word on the IC50: it is the concentration at which inhibition is half-maximal. As to `CC(C)OC(=O)C(C)(C)NP(=O)(CO[C@H](C)Cn1cnc2c(N)ncnc21)NC(=O)c1ccc(Cl)cc1` (single isomer, unassigned) [Example 1B], the figures for the IC50 in series [1] (setting [3]) and in series [1] (setting [4]) were 24.4 nM and 6.9 nM, respectively. Further, in series [2], the “GI Tract stability” value is listed as 95.48%.
Take `CCCOC(=O)C(C)(C)NP(=O)(CO[C@H](C)Cn1cnc2c(N)ncnc21)NC(=O)c1ccc(Cl)cc1` (single isomer, unassigned) [Example 4B]: the IC50 in series [1] (setting [5]) amounted to 17.6 nM; in series [1] (setting [6]) it was 3.6 nM. The “GI Tract stability” value in series [2] was 84.76%.
The matching figures for `CCCCCOC(=O)C(C)(C)NP(=O)(CO[C@H](C)Cn1cnc2c(N)ncnc21)NC(=O)c1ccc(Cl)cc1` (single isomer, unassigned) [Example 3B]: 10.9 nM, 2.3 nM and 75.98%.
The matching figures for `CCCCCOC(=O)C(C)(C)NP(=O)(CO[C@H](C)Cn1cnc2c(N)ncnc21)NC(=O)c1ccc(Cl)cc1` (single isomer, unassigned) [Example 3A]: 33.2 nM, 5.1 nM and 99.9%.
Take `C[C@H](Cn1cnc2c(N)ncnc21)OCP(=O)(NC(=O)c1ccc(Cl)cc1)NC(C)(C)C(=O)OC1CCOCC1` (single isomer, unassigned) [Example 9B]: the values for the 50% inhibitory concentration (IC50) in series [1] (setting [5]) and in series [1] (setting [6]) were 74.8 nM and 16.9 nM, respectively. Moreover, the “GI Tract stability” value in series [2] is 99.1%.
In the case of `CCCCCOC(=O)C(C)(C)NP(=O)(CO[C@H](C)Cn1cnc2c(N)ncnc21)NC(=O)c1ccc(F)cc1` (single isomer, unassigned) [Example 11A], the figures for the IC50 in series [1] (setting [5]) and in series [1] (setting [4]) were 15 nM and 4.1 nM, respectively. In addition, in series [2], the “GI Tract stability” value was 72.61%.
`CC(C)OC(=O)C(C)(C)NP(=O)(CO[C@H](C)Cn1cnc2c(N)ncnc21)NC(=O)c1ccc(F)cc1` (single isomer, unassigned) [Example 10B]: the figures for the IC50 in series [1] (setting [5]) and in series [1] (setting [6]) were 89.8 nM and 25.7 nM, respectively. Moreover, the “GI Tract stability” value in series [2] turned out to be 99.96%.
The matching figures for `CCCCCOC(=O)C(C)(C)NP(=O)(CO[C@H](C)Cn1cnc2c(N)ncnc21)NC(=O)c1ccc(C)cc1` (single isomer, unassigned) [Example 18B]: 10.5 nM, 2 nM and 92.38%.
Regarding `CCCCCOC(=O)C(C)(C)NP(=O)(CO[C@H](C)Cn1cnc2c(N)ncnc21)NC(=O)c1cccs1` (single isomer, unassigned) [Example 15A], the IC50 in series [1] (setting [3]) is 34.1 nM; in series [1] (setting [4]), 8.4 nM. Further, the “GI Tract stability” value in series [2] is listed as 95.44%.
For `C[C@H](Cn1cnc2c(N)ncnc21)OCP(=O)(NC(=O)c1ccc(Cl)cc1)NC(C)(C)C(=O)OC1CCC1` (single isomer, unassigned) [Example 6B], the half-inhibitory concentration (IC50) in series [1] (setting [5]) worked out at 13.5 nM; in series [1] (setting [6]), 4.1 nM. For the same molecule, the “GI Tract stability” value in series [2] is recorded as 90.33%.
In the case of `CC(C)OC(=O)C(C)(C)NP(=O)(CO[C@H](C)Cn1cnc2c(N)ncnc21)NC(=O)c1cnccn1` (single isomer, unassigned) [Example 14A], the IC50 in series [1] (setting [5]) came out at 1570 nM; in series [1] (setting [6]) it was 284 nM.
